We go through five compounds from patent US5547975A, “Benzopyranopyrazolyl derivatives for the treatment of inflammation” (priority 1994, dated 1996).

Where only a bound is given, the exact number is not on record here.

One assay deals with T1, Human COX II (Homo sapiens, UniProt P35354).
T1 construct: made in house; host or cells: SF9 insect cells, recombinant baculovirus (transfer vector pVL1393)
T1 sequence (P35354 18-604): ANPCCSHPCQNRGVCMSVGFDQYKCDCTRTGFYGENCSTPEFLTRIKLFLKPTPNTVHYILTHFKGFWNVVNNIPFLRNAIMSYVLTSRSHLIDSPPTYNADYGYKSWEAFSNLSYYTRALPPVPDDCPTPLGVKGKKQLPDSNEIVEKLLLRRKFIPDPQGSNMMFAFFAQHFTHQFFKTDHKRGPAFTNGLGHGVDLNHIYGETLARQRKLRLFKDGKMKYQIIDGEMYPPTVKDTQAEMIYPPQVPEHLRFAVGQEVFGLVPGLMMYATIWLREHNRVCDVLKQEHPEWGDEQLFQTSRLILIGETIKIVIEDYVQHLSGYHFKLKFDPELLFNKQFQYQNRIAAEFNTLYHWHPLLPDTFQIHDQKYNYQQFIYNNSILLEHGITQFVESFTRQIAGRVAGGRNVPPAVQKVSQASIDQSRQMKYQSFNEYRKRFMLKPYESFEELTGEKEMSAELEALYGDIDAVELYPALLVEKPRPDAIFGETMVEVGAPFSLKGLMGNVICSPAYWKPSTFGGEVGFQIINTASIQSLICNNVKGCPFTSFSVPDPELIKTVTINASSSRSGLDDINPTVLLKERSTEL
As to the kind of experiment: Evaluation of COX II activity in vitro (recombinant enzyme, PGE2 ELISA). Format: biochemical. The note with it: 10 μM arachidonic acid, pre-incubation 10-20 minutes, pH 8.0; read-out: Human COX II ID50. As to the method: (§1) Evaluation of COX I and COX II activity in vitro
The COX II inhibition activity of the compounds of this invention illustrated in the Examples was determined by the following methods.
(§2) a. Preparation of recombinant COX baculoviruses
(§3) A 2.0 kb fragment containing the coding region of either human or murine COX-I or human or murine COX-II was cloned into a BamH1 site of the baculovirus transfer vector pVL1393 (Invitrogen) to generate the baculovirus transfer vectors for COX-I and COX-II in a manner similar to the method of D. R. O'Reilly et al (Baculovirus Expression Vectors: A Laboratory Manual (1992)). Recombinant baculoviruses were isolated by transfecting 4 μg of baculovirus transfer vector DNA into SF9 insect cells ([…]) along with 200 ng of linearized baculovirus plasmid DNA by the calcium phosphate method. See M. D. Summers and G. E. Smith, A Manual of Methods for Baculovirus Vectors and Insect Cell Culture Procedures, Texas Agric. Exp. Station Bull. 1555 (1987). Recombinant viruses were purified by three rounds of plaque purification and high titer (10E7-10E8 pfu/ml) stocks of virus were prepared. For large scale production, SF9 insect cells were infected in 10 liter fermentors (0.5×10^6 /ml) with the recombinant baculovirus stock such that the multiplicity of infection was 0.1. After 72 hours the cells were centrifuged and the cell pellet homogenized in Tris/Sucrose (50 mM: 25%, pH 8.0) containing 1% 3-[(3-cholamidopropyl)dimethylammonio]-1-propanesulfonate (CHAPS). The homogenate was centrifuged at 10,000'G for 30 minutes, and the resultant supernatant was stored at -80° C. before being assayed for COX activity.
(§4) b. Assay for COX I and COX II activity:
(§5) COX activity was assayed as PGE2 formed/μg protein/time using an ELISA to detect the prostaglandin released. CHAPS-solubilized insect cell membranes containing the appropriate COX enzyme were incubated in a potassium phosphate buffer (50 mM, pH 8.0) containing epinephrine, phenol, and heme with the addition of arachidonic acid (10 μM). Compounds were pre-incubated with the enzyme for 10-20 minutes prior to the addition of arachidonic acid. Any reaction between the arachidonic acid and the enzyme was stopped after ten minutes at 37° C./room temperature by transferring 40 μl of reaction mix into 160 μl ELISA buffer and 25 μM indomethacin. The PGE2 formed was measured by standard ELISA technology (Cayman Chemical).

The target in another assay is T2, Human COX I (Homo sapiens, UniProt P23219).
T2 construct: made in house; host or cells: SF9 insect cells, recombinant baculovirus (transfer vector pVL1393)
As to the kind of experiment: Evaluation of COX I activity in vitro (recombinant enzyme, PGE2 ELISA). Format: biochemical. Conditions: 10 μM arachidonic acid, pre-incubation 10-20 minutes, pH 8.0; read-out: Human COX I ID50.
Description: as §1, §2, §3, §4, §5

Assay [1] relates to carrageenan-induced hyperalgesic foot withdrawal. Kind of assay: Rat Carrageenan-induced Analgesia Test. In kind it is in vivo, rat (male Sprague-Dawley). Conditions: oral, @ 30 mg/ka body weight, 3 hours after carrageenan injection. As to the method: Rat Carrageenan-induced Analgesia Test
The analgesia test using rat carrageenan was performed with materials, reagents and procedures essentially as described by Hargreaves, et al., (Pain, 32, 77 (1988)). Male Sprague-Dawley rats were treated as previously described for the Carrageenan Foot Pad Edema test. Three hours after the injection of the carrageenan, the rats were placed in a special plexiglass container with a transparent floor having a high intensity lamp as a radiant heat source, positionable under the floor. After an initial twenty minute period, thermal stimulation was begun on either the injected foot or on the contralateral uninjected foot. A photoelectric cell turned off the lamp and timer when light was interrupted by paw withdrawal. The time until the rat withdraws its foot was then measured. The withdrawal latency in seconds was determined for the control and drug-treated groups, and percent inhibition of the hyperalgesic foot withdrawal determined.

Assay [2] deals with carrageenan foot pad edema (rat paw edema). Kind of assay: Rat Carrageenan Foot Pad Edema Test. In kind it is in vivo, rat (male Sprague-Dawley). Conditions: oral, @ 30 mg/ka body weight, 3 hours after carrageenan injection. As for the experimental part: Rat Carrageenan Foot Pad Edema Test
Male Sprague-Dawley rats were selected in each group so that the average body weight was as close as possible. Rats were fasted with free access to water for over sixteen hours prior to the test. […] One hour later a subplantar injection of 0.1 mL of 1% solution of carrageenan/sterile 0.9% saline was administered and the volume of the injected foot was measured with a displacement plethysmometer connected to a pressure transducer with a digital indicator. Three hours after the injection of the carrageenan, the volume of the foot was again measured.
In general terms: Carrageenan injected into the paw causes an acute inflammation.

T2 sequence (P23219 24-599): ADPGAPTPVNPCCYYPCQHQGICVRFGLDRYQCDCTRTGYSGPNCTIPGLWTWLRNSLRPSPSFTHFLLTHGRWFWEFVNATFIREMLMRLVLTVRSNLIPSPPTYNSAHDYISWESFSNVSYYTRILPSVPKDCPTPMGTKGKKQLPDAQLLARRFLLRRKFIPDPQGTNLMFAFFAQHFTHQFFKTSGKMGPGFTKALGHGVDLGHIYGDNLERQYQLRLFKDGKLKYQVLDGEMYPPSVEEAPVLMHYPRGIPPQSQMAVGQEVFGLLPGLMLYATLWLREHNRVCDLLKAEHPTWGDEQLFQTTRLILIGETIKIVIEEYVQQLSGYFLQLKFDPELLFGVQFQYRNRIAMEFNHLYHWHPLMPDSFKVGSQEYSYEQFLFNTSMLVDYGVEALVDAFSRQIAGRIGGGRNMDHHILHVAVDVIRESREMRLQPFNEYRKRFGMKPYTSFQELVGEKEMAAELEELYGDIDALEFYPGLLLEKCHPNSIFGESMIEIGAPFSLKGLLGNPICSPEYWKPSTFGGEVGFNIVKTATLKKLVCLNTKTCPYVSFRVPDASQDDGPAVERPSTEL

Take `COc1ccc2c(c1F)CSc1c(C(F)(F)F)nn(-c3ccc(S(C)(=O)=O)cc3)c1-2` [Example 2, 1,5-Dihydro-6-fluoro-7-methoxy-1-[(4-methylsulfonyl)phenyl]-3-(trifluoromethyl)-[2]benzothiopyrano[4,3-c]pyrazole]: the IC50 at Human COX II was less than 0.1 µM; at Human COX I, greater than 100 µM. Also, in assay [1], the “ANALGESIA % Inhibition” value was determined as 29%.

On to `NS(=O)(=O)c1ccc(-n2nc(C(F)(F)F)c3c2-c2cc(Cl)sc2CS3)cc1` [Example 21, 4-[7-Chloro-1,5-dihydro-3-trifluoromethyl-thieno[3',2':4,5]thiopyrano[3,2-c]pyrazol-1-yl]benzenesulfonamide], for which the results for the IC50 on Human COX II and on Human COX I were less than 0.1 µM and 8.7 µM, respectively. Also, the “RAT PAW EDEMA % Inhibition” value in assay [2] came to 26%.

In the case of `COc1ccc2c(c1F)C[S+]([O-])c1c(C(F)(F)F)nn(-c3ccc(S(N)(=O)=O)cc3)c1-2` (stereo not drawn) [Example 28, 4-[1,5-dihydro-6-fluoro-7-methoxy-3-(trifluoromethyl)-[2]benzothiopyrano-S-oxide[4,3-c]pyrazol-1-yl]benzenesulfonamide], the IC50 on Human COX II was 1.2 µM; at Human COX I, greater than 100 µM.

In the case of `COC(=O)c1nn(-c2ccc(S(N)(=O)=O)cc2)c2c1SCc1cc(F)ccc1-2` [Example 29, methyl[1-(4-aminosulfonylphenyl)-1,5-dihydro-7-fluoro-[2]benzothiopyrano[4,3-c]pyrazol-3-yl]carboxylate], the values for the IC50 at Human COX II and at Human COX I were 0.8 µM and 13.2 µM, respectively.

In the case of `COc1ccc2c(c1F)CSCc1c(C(F)(F)F)nn(-c3ccc(S(N)(=O)=O)cc3)c1-2` [Example 30, 4-[4,6-dihydro-7-fluoro-8-methoxy-3-(trifluoromethyl)-[2]benzothiepino[5,4-c]pyrazol-1-yl]benzenesulfonamide], the IC50 was found to be 2.2 µM on Human COX II and 73.4 µM at Human COX I.
